Measurements published in patent US20060030616A1, “Anhydride modified cantharidin analogues useful in the treatment of cancer” (priority 1998, published 2006).

Columns and labels:
HT29 cells [1] = experiment: Cell cycle analysis, flow cytometry of propidium iodide stained cells; format: cell-based, human; settings: for Cell Cycle Distribution, G1 / Cell Cycle Distribution, G2 + M / Cell Cycle Distribution, S / Cell Cycle Distribution, sub G1 / Cell cycle remark: 12 h
Description: (§1) The cells are fixed in 70% ethanol and stored at −20° C. until analysis is performed (1-2 weeks). After fixing, the cells are pelleted and incubated in PBS containing propidium iodide ([…]) and RNase A (200 mg/ml) for at least 30 min at room temperature. The samples (2×10^4 events) are analysed using a Becton Dickson FACScan, fluorescence is collected in fluorescence detector 2 (FL2), filter 575/30 nm band pass. Cell cycle distribution is assessed using Cell Quest software (Becton Dickson).
(§2) The ability of the protein phosphatase inhibitors to abrogate the G1 or G2 checkpoint of the cell cycle may be determined by cell cycle analysis using flow cytometry. Briefly, asynchronous cell cultures are harvested 18 h after 6 Gy irradiation and/or 12 h incubation with the protein phosphatase inhibitor. Depending upon the p53 status of the cell line, radiation treatment alone will induce arrest in either G1 and/or G2 phase of the cell cycle.
(§3) Data shown in Table 2 and FIG. 4 show the cell cycle response of L1210, HL60, HT29 and HCT116 cells to cantharidin and the new cantharidin analogues MK-2 and MK-4 after 12 h exposure. In summary, cantharidin and MK-2 produced a similar response and induced G2 arrest in all four cell lines tested. […] HL60 and HCT116 cells. […] The magnitude of the cell cycle arrest induced by these drugs directly correlated with their cytotoxicity in the respective cell lines. […] The cytotoxicity of the […]

HCT116 cells [2] = experiment: as above; format: cell-based, human
Description: as §1, §2, §3

HL60 cells [3] = experiment: as above; format: cell-based, human; settings: for Cell Cycle Distribution, G1 / Cell Cycle Distribution, G2 + M / Cell Cycle Distribution, S / Cell Cycle Distribution, sub G1 / Cell cycle remark: 12 h
Description: as §1, §2, §3

WiDr cells = experiment: MTT cytotoxicity assay, 72 h; format: cell-based, human; settings: Homo sapiens, 72 h, p53 mt, read-out: IC50 (mean ± SE) after 72 h continuous exposure
Description: (§4) Cells in a subconfluent phase are transferred to 96-well microtitre plates. L1210 cells are plated at a density of 1000 cells/well in 100 μl medium, while all other cell lines are plated at a density of 2000-25000 cells/well. The cells are left for 24 h prior to treatment to ensure exponential growth has been achieved, 24 h after plating (day 0), 100 μl of phosphatase inhibitor is added to each well, control wells received 100 μl of medium only. Drug exposure time is 72 h (day 3). The effect of phosphatase inhibition is tested in triplicate over a concentration range of […]−1×10^−8 M. Growth inhibitory effects are evaluated using the MTT assay and absorbance read at […]. The IC50 is the drug concentration at which cell growth is 50% inhibited based on the difference of optical density on day 0 and day 3 of drug exposure. Cytotoxicity is evaluated using a spectrophotometric assay which determines the percentage of cell growth following exposure of the cells to various concentrations of the phosphatase inhibitors for a period of 72 hours. The subsequent dose response curve is used to calculate IC50 values (the drug concentration at which cell growth is 50% inhibited).
(§5) Anti-cancer screening of the protein phosphatase inhibitors is assessed using the MTT assay. This assay determines cell viability by the ability of mitochondrial dehydrogenase to produce formazan crystals from 3-(4,5-dimethylthiazol-2-yl)-2,5-diphenyltetrazolium bromide. The viable cell number/well is directly proportional to the production of formazan, which following solubilization, can be measured spectrophotometrically (540 nm). This technique is also used by the National Cancer Institute to screen for new anticancer agents.
(§6) As described herein a number of cantharidin analogues have been synthesised and tested for their anticancer activity in nine cancer cell lines using the MTT assay after 72 h exposure. These new analogues are shown in FIG. 2 and have been designated MK-1 through to MK-9.

143B cells = experiment: MTT cytotoxicity assay, 72 h; format: cell-based, human; settings: Homo sapiens, 72 h, p53 mt, read-out: IC50 (mean ± SE) after 72 h continuous exposure
Description: as §4, §5, §6

ADDP cells = experiment: MTT cytotoxicity assay, 72 h; format: cell-based, human; settings: Homo sapiens, 72 h, p53 mt, read-out: IC50 (mean ± SE) after 72 h continuous exposure
Description: as §4, §5, §6

SW480 cells = experiment: MTT cytotoxicity assay, 72 h; format: cell-based, human; settings: Homo sapiens, 72 h; SW480, p53 mt; read-out: IC50 (mean ± SE) after 72 h continuous exposure
Description: as §4, §5, §6

HT29 cells [4] = experiment: MTT cytotoxicity assay, 72 h; format: cell-based, human; settings: Homo sapiens, HT-29, 72 h; HT29, p53 mt; read-out: IC50 (mean ± SE) after 72 h continuous exposure
Description: as §4, §5, §6

HCT116 cells [5] = experiment: MTT cytotoxicity assay, 72 h; format: cell-based, human; settings: Homo sapiens, HCT-116, 72 h; HCT116, p53 wt; read-out: IC50 (mean ± SE) after 72 h continuous exposure
Description: as §4, §5, §6

HL60 cells [6] = experiment: MTT cytotoxicity assay, 72 h; format: cell-based, human; settings: Homo sapiens, HL-60, 72 h; HL60, p53 nul; read-out: IC50 (mean ± SE) after 72 h continuous exposure
Description: as §4, §5, §6

L1210 cells = experiment: MTT cytotoxicity assay, 72 h; format: cell-based, murine; settings: Mus musculus, 72 h; L1210, p53 wt; read-out: IC50 (mean ± SE) after 72 h continuous exposure
Description: as §4, §5, §6

## C[C@@]12C(=O)OC(=O)[C@]1(C)[C@H]1CC[C@@H]2O1 [Cantharidin, exo.exo-2.3-dimethyl-7-oxobicyclo[2.2.1]heptane-2,3-dicarboxylic acid anhydride]
HT29 cells [1]; HT29, 1 μM
  Cell Cycle Distribution, G1: 46.2 percentage of total
  Cell Cycle Distribution, G2 + M: 37.4 percentage of total
  Cell Cycle Distribution, S: 7.8 percentage of total
  Cell Cycle Distribution, sub G1: 9.0 percentage of total
HT29 cells [1]; HT29, 5 μM
  Cell Cycle Distribution, G1: 47.4 percentage of total
  Cell Cycle Distribution, G2 + M: 39.8 percentage of total
  Cell Cycle Distribution, S: 9.3 percentage of total
  Cell Cycle Distribution, sub G1: 4.0 percentage of total
HT29 cells [1]; HT29, 10 μM
  Cell Cycle Distribution, G1: 42.7 percentage of total
  Cell Cycle Distribution, G2 + M: 40.3 percentage of total
  Cell Cycle Distribution, S: 14.6 percentage of total
  Cell Cycle Distribution, sub G1: 2.8 percentage of total
  Cell cycle remark: G2 arrest
HT29 cells [1]; HT29, 50 μM
  Cell Cycle Distribution, G1: 46.0 percentage of total
  Cell Cycle Distribution, G2 + M: 26.0 percentage of total
  Cell Cycle Distribution, S: 14.7 percentage of total
  Cell Cycle Distribution, sub G1: 15.1 percentage of total
  Cell cycle remark: Cell Death
HT29 cells [1]; HT29, 12 h exposure
  Cell cycle response: G2 arrest
HCT116 cells [2]; HCT116, 1 μM, 12 h
  Cell Cycle Distribution, G1: 39.9 percentage of total
  Cell Cycle Distribution, G2 + M: 41.9 percentage of total
  Cell Cycle Distribution, S: 17.2 percentage of total
  Cell Cycle Distribution, sub G1: 2.2 percentage of total
HCT116 cells [2]; HCT116, 5 μM, 12 h
  Cell Cycle Distribution, G1: 39.9 percentage of total
  Cell Cycle Distribution, G2 + M: 41.8 percentage of total
  Cell Cycle Distribution, S: 16.8 percentage of total
  Cell Cycle Distribution, sub G1: 2.9 percentage of total
HCT116 cells [2]; HCT116, 10 μM, 12 h
  Cell Cycle Distribution, G1: 38.0 percentage of total
  Cell Cycle Distribution, G2 + M: 42.0 percentage of total
  Cell Cycle Distribution, S: 14.9 percentage of total
  Cell Cycle Distribution, sub G1: 6.2 percentage of total
HCT116 cells [2]; HCT116, 50 μM, 12 h
  Cell Cycle Distribution, G1: 25.1 percentage of total
  Cell Cycle Distribution, G2 + M: 48.1 percentage of total
  Cell Cycle Distribution, S: 17.8 percentage of total
  Cell Cycle Distribution, sub G1: 11.1 percentage of total
  Cell cycle remark: G2 arrest
HCT116 cells [2]; HCT116, 12 h exposure
  Cell cycle response: G2 arrest
HL60 cells [3]; HL60, 1 μM
  Cell Cycle Distribution, G1: 44.0 percentage of total
  Cell Cycle Distribution, G2 + M: 29.7 percentage of total
  Cell Cycle Distribution, S: 26.1 percentage of total
  Cell Cycle Distribution, sub G1: 1.5 percentage of total
HL60 cells [3]; HL60, 5 μM
  Cell Cycle Distribution, G1: 41.4 percentage of total
  Cell Cycle Distribution, G2 + M: 30.6 percentage of total
  Cell Cycle Distribution, S: 27.7 percentage of total
  Cell Cycle Distribution, sub G1: 1.7 percentage of total
HL60 cells [3]; HL60, 10 μM
  Cell Cycle Distribution, G1: 41.8 percentage of total
  Cell Cycle Distribution, G2 + M: 30.4 percentage of total
  Cell Cycle Distribution, S: 27.5 percentage of total
  Cell Cycle Distribution, sub G1: 1.7 percentage of total
  Cell cycle remark: G2 arrest
HL60 cells [3]; HL60, 50 μM
  Cell Cycle Distribution, G1: 16.2 percentage of total
  Cell Cycle Distribution, G2 + M: 34.7 percentage of total
  Cell Cycle Distribution, S: 31.6 percentage of total
  Cell Cycle Distribution, sub G1: 19.3 percentage of total
  Cell cycle remark: Cell Death
HL60 cells [3]; HL60, 12 h exposure
  Cell cycle response: G2 arrest
WiDr cells
  IC50: 6.1 ± 0.5 µM
143B cells
  IC50: 10.2 ± 1.2 µM
ADDP cells
  IC50: 12 ± 0.8 µM
SW480 cells
  IC50: 17.5 µM
HT29 cells [4]
  IC50: 6.4 ± 0.7 µM
HCT116 cells [5]
  IC50: 12 µM
HL60 cells [6]
  IC50: 13 µM
L1210 cells
  IC50: 18 µM
